Experimental data taken from patent publication US20080200473A1, “Imidazo [1,2-a]Pyridine Compounds, Compositions, Uses and Methods Thereto” (Ferrer Internacional, S.A., priority 2004, published 2008).

Assays:
α1-GABAA receptor = test: Ligand-binding assay, competitive with radiolabeled flumazenil, cerebellum membranes; details: Affinity for α1-GABAA receptor, rat cerebellum membranes, radiolabeled flumazenil 1 nM; for % Inhibition 10^−5M: 10^-5M test compound; for % Inhibition 10^−7M: 10^-7M test compound
Experimental: (§1) Ligand-binding assays. Determination of the affinity of test compounds for α1- and α2-GABAA receptor.
(§2) Male Sprague-Dawley rats weighing 200-250 g at the time of experiment were used. After decapitation of the animal, the cerebellum (tissue that mostly contains α1-GABAA receptor) and spinal cord (tissue that mostly contains α2-GABAA receptor) were removed. The membranes were prepared according to the method by J. Lameh et al. (Prog. Neuro-Psychopharmacol. Biol. Psychiatry, 24, 979-991, 2000) and H. Noguchi et al. (Eur. J. Pharm., 434, 21-28, 2002). Once the tissues weighed, they were suspended in 50 mM Tris.HCl (pH 7.4), 1:40 (w/v), or sucrose 0.32 M in the case of spinal cord, homogenized and then centrifuged at 20,000 g for 10 min at 7° C. twice. The resulting pellet was resuspended under the same conditions and centrifuged again. The pellet was finally resuspended on a minimum volume and kept at −80° C. overnight. On the next day, the process was repeated until the final pellet was resuspended at a ratio of 1:10 (w/v) in the case of cerebellum and at a ratio of 1:5 (w/v) in the case of spinal cord.
(§3) Affinity was determined by competitive tests using radiolabeled flumazenil as ligand. The tests were performed according to the methods described by S. Arbilla et al. (Eur. J. Pharmacol., 130, 257-263, 1986); and Y. Wu et al. (Eur. J. Pharmacol., 278, 125-132, 1995) using 96-well microtiter plates. The membranes containing the study receptors, flumazenil (radiolabeling at a final concentration of 1 nM) and ascending concentrations of test compounds (in a total volume of 230 μL in 50 mM [ph 7.4] Tris.HCl buffer) were incubated. Simultaneously, the membranes were only incubated with the radiolabeled flumazenil (total binding, 100%) and in the presence of an elevated concentration of unradiolabeled flumazenil (non-specific binding, % estimation of radiolabeled ligand). The reactions started on adding the radiolabeled ligand followed by incubation for 60 minutes at 4° C. At the end of the incubation period, 200 μL of reaction were transferred to a multiscreen plate (Millipore) and filtered using a vacuum manifold and then washed three times with cold test buffer. The multiscreen plates were equipped with a GF/B filter that retained the membranes containing the receptors and the radiolabeled ligand which has been bound to the receptors. After washing, the plates were left till dry. Once dried, scintillation liquid was added and left under stirring overnight. The next day the plates were counted using a Perkin-Elmer Microbeta scintillation counter.
(§4) For analysis of the results the percentage of specific binding for every concentration of test compound was calculated as follows:
(§5) % specific binding=(X−N/T−N)×100
(§6) where, X: amount of bound ligand for every concentration of compound. T: total binding, maximum amount bound to the radiolabeled ligand. N: non-specific binding, amount of radiolabeled ligand bound in a non-specific way irrespective of the receptor used.
(§7) Every concentrations of compound were tested in triplicate and their mean values were used to determine the experimental values of % specific binding versus the concentration of compound. Affinity data are expressed as % inhibition at 10^-5M and 10^-7M concentrations.

α2-GABAA receptor = test: Ligand-binding assay, competitive with radiolabeled flumazenil, spinal cord membranes; details: Affinity for α2-GABAA receptor, rat spinal cord membranes, radiolabeled flumazenil 1 nM; for % Inhibition 10^−5M: 10^-5M test compound; for % Inhibition 10^−7M: 10^-7M test compound
Experimental: as §1, §2, §3, §4, §5, §6, §7

mice = test: In vivo predictive sedation-hypnosis test (inhibition of traveled distance); design: species or system mouse; details: male CD1 mice; single equimolecular intraperitoneal doses; traveled distance over 30 min after dosing (first 5 min discarded) versus control
Experimental: In vivo determination of predictive sedative-hypnotic action.
The in vivo effects of these compounds were assessed by a predictive sedation-hypnosis test in mice (D. J. Sanger et al., Eur. J. Pharmacol., 313, 35-42, 1996; and G. Griebel et al., Psychopharmacology, 146, 205-213, 1999).
Groups of 5-8 male CD1 mice, weighing 22-26 g at the time of test, were used. The test compounds were administered in single equimolecular intraperitoneal doses, suspended in 0.25% agar with one drop of Tween in a volume of 10 mL/kg. Control animals received the vehicle alone. Using a Smart System (Panlab, S. L., Spain) the traveled distance in cm is recorded for each mouse at 5-min intervals during a period of 30 minutes after dosing. The inhibition percentage of traveled distance of treated animals versus control animals (the first 5 min were discarded) was calculated.

| Compound | % Inhibition 10^−5M (α1-GABAA receptor) | % Inhibition 10^−7M (α1-GABAA receptor) | % Inhibition 10^−5M (α2-GABAA receptor) | % Inhibition 10^−7M (α2-GABAA receptor) | % Inhibition Motor Activity (mice) |
| --- | --- | --- | --- | --- | --- |
| Cc1ccc(-c2nc3ccc(C)cn3c2CNC(=O)c2ccc(N(C)C)cc2)cc1 [Example 3, 4-Dimethylamino-N-(6-methyl-2-p-tolyl-imidazo[1,2-a]pyridin-3-ylmethyl)-benzamide] | 73.9% | 21.4% | 17.4% | 0.0% | 45.59% |
| Cc1ccc(-c2nc3ccc(C)cn3c2CNC(=O)c2ccco2)cc1 [Example 4, Furan-2-carboxylic acid (6-methyl-2-p-tolyl-imidazo[1,2-a]pyridin-3-ylmethyl)-amide] | 97.4% | 19.4% | 82.9% | 0.0% | 73.28% |
| Cc1ccc(-c2nc3ccc(C)cn3c2CNC(=O)c2ccccn2)cc1 [Example 5, Pyridine-2-carboxylic acid (6-methyl-2-p-tolyl-imidazo[1,2-a]pyridin-3-ylmethyl)-amide] | 99.8% | 75.5% | 95.3% | 28.4% | 90.40% |
| Cc1ccc(-c2nc3ccc(C)cn3c2CNC(=O)c2ccc(C)n2C)cc1 [Example 6, 1,5-Dimethyl-1H-pyrrole-2-carboxylic acid (6-methyl-2-p-tolyl-imidazo[1,2-a]pyridin-3-ylmethyl)-amide] | 96.1% | 22.5% | 64.4% | 0.0% | 78.09% |
| Cc1ccc(-c2nc3ccc(C)cn3c2CNC(=O)c2ccncc2)cc1 [Example 7, N-(6-Methyl-2-p-tolyl-imidazo[1,2-a]pyridin-3-ylmethyl)-isonicotinamide] | 98.0% | 36.5% | 81.3% | 0.0% | 72.45% |
| COc1ccc(C(=O)NCc2c(-c3ccc(C)cc3)nc3ccc(C)cn23)cc1 [Example 11, 4-Methoxy-N-(6-methyl-2-p-tolyl-imidazo[1,2-a]pyridin-3-ylmethyl)-benzamide] | 70.7% | 29.0% | 6.5% | 0.0% | 55.43% |
| CC(=O)c1ccc(C(=O)NCc2c(-c3ccc(C)cc3)nc3ccc(C)cn23)cc1 [Example 12, 4-Acetyl-N-(6-methyl-2-p-tolyl-imidazo[1,2-a]pyridin-3-ylmethyl)-benzamide] | 73.7% | 18.6% | 19.0% | 0.0% | 56.84% |
| Cc1ccc(-c2nc3ccc(C)cn3c2CNC(=O)C2CC2)cc1 [Example 13, Cyclopropanecarboxylic acid (6-methyl-2-p-tolyl-imidazo[1,2-a]pyridin-3-ylmethyl)-amide] | 97.6% | 53.8% | 67.8% | 0.0% | 90.36% |
| Cc1ccc(-c2nc3ccc(C)cn3c2CNC(=O)c2ccc([N+](=O)[O-])o2)cc1 [Example 14, 5-Nitro-furan-2-carboxylic acid (6-methyl-2-p-tolyl-imidazo[1,2-a]pyridin-3-ylmethyl)-amide] | 99.4% | 51.4% | 92.2% | 26.2% | 89.82% |
| Cc1ccc(-c2nc3ccc(C)cn3c2CNC(=O)c2occc2C)cc1 [Example 15, 3-Methyl-furan-2-carboxylic acid (6-methyl-2-p-tolyl-imidazo[1,2-a]pyridin-3-ylmethyl)-amide] | 74.5% | 0.0% | 41.6% | 0.0% | 80.12% |
| Cc1ccc(-c2nc3ccc(C)cn3c2CNC(=O)c2sccc2C)cc1 [Example 16, 3-Methyl-thiophene-2-carboxylic acid (6-methyl-2-p-tolyl-imidazo[1,2-a]pyridin-3-ylmethyl)-amide] | 95.4% | 2.2% | 52.9% | 0.0% | 82.38% |
| Cc1ccc(-c2nc3ccc(C)cn3c2CNC(=O)c2ccnc(Cl)c2)cc1 [Example 17, 2-Chloro-N-(6-methyl-2-p-tolyl-imidazo[1,2-a]pyridin-3-ylmethyl)-isonicotinamide] | 94.5% | 0.0% | 24.4% | 0.0% | 54.40% |
| Cc1ccc(-c2nc3ccc(C)cn3c2CNC(=O)/C=C/c2ccco2)cc1 [Example 80, 3-Furan-2-yl-N-(6-methyl-2-p-tolyl-imidazo[1,2-a]pyridin-3-ylmethyl)-acrylamide] | 88.9% | 0.0% |  |  | 61.89% |
| Cc1ccc(-c2nc3ccc(C)cn3c2CNC(=O)c2ccsc2)cc1 [Example 82, Thiophene-3-carboxylic acid (6-methyl-2-p-tolyl-imidazo[1,2-a]pyridin-3-ylmethyl)-amide] | 98.7% | 33.0% |  |  | 61.93% |
| Cc1ccc(-c2nc3ccc(C)cn3c2CNC(=O)c2cc(C)n(C3CC3)c2C)cc1 [Example 84, 1-Cyclopropyl-2,5-dimethyl-1H-pyrrole-3-carboxylic acid (6-methyl-2-p-tolyl-imidazo[1,2-a]pyridin-3-ylmethyl)-amide] |  |  |  |  | 36.32% |
| Cc1ccc(-c2nc3ccc(C)cn3c2CNC(=O)c2cc(F)c(Cl)cc2Cl)cc1 [Example 87, 2,4-Dichloro-5-fluoro-N-(6-methyl-2-p-tolyl-imidazo[1,2-a]pyridin-3-ylmethyl)-benzamide] |  |  |  |  | 48.13% |
| Cc1ccc(-c2nc3ccc(C)cn3c2CNC(=O)c2csc([N+](=O)[O-])c2)cc1 [Example 88, 5-Nitro-thiophene-3-carboxylic acid (6-methyl-2-p-tolyl-imidazo[1,2-a]pyridin-3-ylmethyl)-amide] | 96.2% | 0.0% |  |  | 51.87% |
| Cc1ccc(-c2nc3ccc(C)cn3c2CN(C)C(=O)c2cnccn2)cc1 [Example 96, Pyrazine-2-carboxylic acid methyl-(6-methyl-2-p-tolyl-imidazo[1,2-a]pyridin-3-ylmethyl)-amide] | 99.9% | 80.5% |  |  | 44.04% |
| Cc1ccc(-c2nc3ccc(C)cn3c2CN(C)C(=O)c2cnoc2C)cc1 [Example 99, 5-Methyl-isoxazole-4-carboxylic acid methyl-(6-methyl-2-p-tolyl-imidazo[1,2-a]pyridin-3-ylmethyl)-amide] | 99.2% | 52.5% |  |  | 13.33% |
